Measurements from patent US20230128137A1, “BENZO FIVE-MEMBERED CYCLIC COMPOUND” (MEDSHINE DISCOVERY INC., priority 2020, published 2023).
Where “and” joins values, the source holds several entries; their conditions need not be identical. Equal entries are not always repeated.

Tests used:
Bcl-xL = target: T1, Bcl-xL (Homo sapiens, UniProt Q07817); assay: HTRF competition test, Bcl-xL with FAM-Bad peptide (enzymology experiment); format: binding; details: 3 nM Bcl-xL and 40 nM FAM-Bad, read-out: IC50 (nM) for inhibition of Bcl-xL enzyme
T1 construct: Human recombinant Bcl-xL (amino acid 1-209); purchased Reaction Biology Corporation (RBC) APT-11-442; host or cells: E. coli
T1 sequence (Q07817 1-209): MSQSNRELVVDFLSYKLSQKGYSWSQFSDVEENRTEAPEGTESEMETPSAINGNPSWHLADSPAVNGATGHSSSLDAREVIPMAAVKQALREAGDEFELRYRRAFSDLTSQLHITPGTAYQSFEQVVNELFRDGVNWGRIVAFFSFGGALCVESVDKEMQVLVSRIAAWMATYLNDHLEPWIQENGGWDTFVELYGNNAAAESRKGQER
Description: This experiment was based on the competition between fluorescently-labeled Bak/Bad/Noxa peptides and GST-labeled Bcl family proteins. The fluorescence detection method based on HTRF was to observe the binding degree by using the fluorescence ratio between Tb-labeled anti-GST and FAM-labeled peptides. This peptide binds to the surface of the Bcl family protein pocket, which is essential for its anti-apoptotic function.
1.1 Experimental reagents: analysis buffer: 20 mM potassium phosphate, pH 7.5, 50 mM sodium chloride, 1 mM EDTA, 0.005% Tritonx-100 and 1% DMSO.
1.2 Probe: 5,6-FAM-peptide
1.4 Experimental Conditions:
3 nM Bcl-xL and 40 nM FAM-Bad
a) The Bcl enzyme reaction solution was prepared in the newly prepared analysis buffer;
b) the Bcl enzyme reaction solution was provided;
c) the compound was first prepared into a 100% dimethyl sulfoxide solution, and then the compound solution was mixed with the Bcl enzyme reaction solution using (Echo550; nanoliter range) technology, and co-incubated for 10 minutes;
d) the FAM peptide solution was added.
e) the mixed solution was gently stirred in dark and room temperature, and co-cultured for 10 minutes.
f) Anti-GST solution was added.
g) The mixed solution was gently stirred in dark and room temperature, and co-cultured for 1 hour.
h) The HTRF high-frequency fluorescence ratio was tested, and the IC50 values were calculated.

RS4;11 cells = assay: CTG (CellTiter-Glo) test of inhibition of RS4;11 cell proliferation; format: cell-based; details: Homo sapiens, 72 hours incubation
Description: 2.1 Experimental objectives: To obtain the IC50 value of the test compound in RS4;11 cell lines;
2.2 incubation time: 72 hours;
2.3 experimental method: CTG (Cell Titer-Glo™ Luminescent Cell Viability Assay);
a. when the cells were fused to 80%, the cells were collected and counted;
b. RS4; 11 cell suspension was diluted to 5000 cells/well and 20 uls of cell suspension was seeded in each well of 384-well plate;
c. the cell plates were placed back to 37° C. and incubated in a 5% carbon dioxide incubator for 24 hours;
d. the test compound was prepared into DMSO solution, and 5 μL of each was added to the designated well of the test plate, and the final concentration of DMSO solution was 0.5%;
e. initiation cell viability was detected by CTG;
f. the test plate was put back into the incubator and incubated for another 72 hours;
g. after 72 hours incubation, CellTiter-Glo™ luminescent cell viability assay was completed according to the manufacturer's manual;

[1] = tested on: human acute lymphoblastic leukemia cell RS4;11 graft tumor; assay: In vivo anti-tumor effect, RS4;11 graft tumor model in BALB/c nude mice; parameters: species or system BALB/c nude mouse; details: for T/C (relative tumor proliferation rate) / TGI (tumor growth inhibition rate): based on tumor volume on day 32
Description: 5.1 Experimental animals: Balb/c nude mice, 32 mice, 7 to 8 weeks old, female;
5.2 tumor cells: human acute lymphoblastic leukemia cell line RS4;11, cultured in a suspension in vitro, and the culture conditions were RPMI-1640 culture medium containing 10% fetal bovine serum, cultured in a 5% CO2 incubator at 37° C. When the cells were in exponential growth period and the saturation was 80% to 90%, the cells were collected and counted;
5.3 cell seeding and grouping: the cells were resuspended in […], and the basement membrane matrigel was added in 1:1, and the mixture was mixed well, and the density was 5×10^7 cells/mL. 0.2 mL of cell suspension (containing 1×10^7 RS4;11 cells) was subcutaneously inoculated on the right back of each mouse, and when the average tumor volume reached about 120 mm^3, the drug was administered randomly according to the tumor volume;
5.4 preparation of the subject: an appropriate amount of compound 2 was weighed respectively, and the solvent formula was 2.5% dimethyl sulfoxide, 5% ethanol, 10% cremophor EL, 20% glucose solution (concentration of 5%), 62.5% water;
5.5 tumor-bearing mice divided into four groups (8 mice in each group) were given blank solvent, compound 2 (12.5 mpk, QD), compound 2 (25 mpk, QD) and compound 2 (50 mpk, QD), respectively;
5.6 tumor measurement and experimental indicators:
tumor diameters were measured with vernier calipers two times a week. The calculation formula of tumor volume is: V=0.5×a×b^2, a represents the long diameter of the tumor, and b represents the short diameter of the tumor. The tumor inhibition efficacy of the compounds was evaluated by TGI (%) or relative tumor proliferation rate T/C (%).
Relative tumor proliferation rate T/C %=TRTV/CRTV×100% (TRTV: RTV in the treatment group; CRTV: RTV in the negative control group). The relative tumor volume (RTV) is calculated according to the results of tumor measurement, and the formula is RTV=Vt/V0, where V0 is the tumor volume measured at the time of group administration (i.e., D0), and Vt is the tumor volume measured at a certain measurement, TRTV and CRTV were taken on the same day.
TGI (%), reflecting the tumor growth inhibition rate. The formula for calculating the tumor inhibition efficacy TGI is: […]

CC1(C)CCC(CN2CCN(c3ccc(C(=O)NS(=O)(=O)c4cc([N+](=O)[O-])c(NCC5CCOCC5)c5[nH]cnc45)c(Oc4cnc5[nH]ccc5c4)c3)CC2)=C(c2ccc(Cl)cc2)C1 [Compound 2]
IC50 (Bcl-xL): 411 nM | IC50 (RS4;11 cells): 2.7 nM | animal state during the experiment ([1]; 12.5, 25, 50 mpk, QD): normal | T/C (relative tumor proliferation rate) ([1]; 12.5 mpk, QD): 22.37% | TGI (tumor growth inhibition rate) ([1]; 12.5 mpk, QD): 82.12% | Tumor volume ([1]; 12.5 mpk, QD, day 1 after administration, mean ± SEM, n = 8): 114.44 ± 4.91 mm^3 and 114.44 mm^3 | Tumor volume ([1]; 12.5 mpk, QD, day 4 after administration): 124.75 ± 10.85 mm^3 | Tumor volume ([1]; 12.5 mpk, QD, day 6 after administration): 120.60 ± 12.60 mm^3 | Tumor volume ([1]; 12.5 mpk, QD, day 8 after administration): 124.22 ± 15.25 mm^3 | Tumor volume ([1]; 12.5 mpk, QD, day 11 after administration): 126.73 ± 11.57 mm^3 | Tumor volume ([1]; 12.5 mpk, QD, day 14 after administration): 145.41 ± 17.58 mm^3 | Tumor volume ([1]; 12.5 mpk, QD, day 18 after administration): 198.17 ± 38.18 mm^3 | Tumor volume ([1]; 12.5 mpk, QD, day 21 after administration): 209.63 ± 39.56 mm^3 | Tumor volume ([1]; 12.5 mpk, QD, day 25 after administration): 254.52 ± 52.29 mm^3 | Tumor volume ([1]; 12.5 mpk, QD, day 28 after administration): 306.93 ± 66.01 mm^3 | Tumor volume ([1]; 12.5 mpk, QD, day 32 after administration, mean ± SEM, n = 8): 365.13 ± 85.31 mm^3 and 365.13 mm^3 | T/C (relative tumor proliferation rate) ([1]; 25 mpk, QD): 16.54% | TGI (tumor growth inhibition rate) ([1]; 25 mpk, QD): 89.15% | Tumor volume ([1]; 25 mpk, QD, day 1 after administration, mean ± SEM, n = 8): 114.50 ± 4.98 mm^3 and 114.50 mm^3 | Tumor volume ([1]; 25 mpk, QD, day 4 after administration): 99.54 ± 6.66 mm^3 | Tumor volume ([1]; 25 mpk, QD, day 6 after administration): 106.03 ± 13.15 mm^3 | Tumor volume ([1]; 25 mpk, QD, day 8 after administration): 107.66 ± 15.62 mm^3 | Tumor volume ([1]; 25 mpk, QD, day 11 after administration): 101.57 ± 15.87 mm^3 | Tumor volume ([1]; 25 mpk, QD, day 14 after administration): 116.52 ± 28.85 mm^3 | Tumor volume ([1]; 25 mpk, QD, day 18 after administration): 146.77 ± 44.03 mm^3 | Tumor volume ([1]; 25 mpk, QD, day 21 after administration): 191.06 ± 69.68 mm^3 | Tumor volume ([1]; 25 mpk, QD, day 25 after administration): 174.50 ± 58.56 mm^3 | Tumor volume ([1]; 25 mpk, QD, day 28 after administration): 206.82 ± 76.64 mm^3 | Tumor volume ([1]; 25 mpk, QD, day 32 after administration, mean ± SEM, n = 8): 266.63 ± 95.51 mm^3 and 266.63 mm^3 | T/C (relative tumor proliferation rate) ([1]; 50 mpk, QD): 7.30% | TGI (tumor growth inhibition rate) ([1]; 50 mpk, QD): 100.27% | Tumor volume ([1]; 50 mpk, QD, day 1 after administration, mean ± SEM, n = 8): 114.18 ± 4.30 mm^3 and 114.18 mm^3 | Tumor volume ([1]; 50 mpk, QD, day 4 after administration): 95.13 ± 7.43 mm^3 | Tumor volume ([1]; 50 mpk, QD, day 6 after administration): 91.16 ± 6.08 mm^3 | Tumor volume ([1]; 50 mpk, QD, day 8 after administration): 86.91 ± 4.92 mm^3 | Tumor volume ([1]; 50 mpk, QD, day 11 after administration): 67.64 ± 3.93 mm^3 | Tumor volume ([1]; 50 mpk, QD, day 14 after administration): 74.27 ± 6.37 mm^3 | Tumor volume ([1]; 50 mpk, QD, day 18 after administration): 58.39 ± 6.94 mm^3 | Tumor volume ([1]; 50 mpk, QD, day 21 after administration): 70.21 ± 8.91 mm^3 | Tumor volume ([1]; 50 mpk, QD, day 25 after administration): 75.62 ± 10.30 mm^3 | Tumor volume ([1]; 50 mpk, QD, day 28 after administration): 78.03 ± 9.52 mm^3 | Tumor volume ([1]; 50 mpk, QD, day 32 after administration, mean ± SEM, n = 8): 110.37 ± 19.73 mm^3 and 110.37 mm^3 | tumor inhibition effect (in words) ([1]; three dose groups (12.5, 25, 50 mpk, QD), obvious dose-dependence): significant tumor inhibition effect
